Source: patent US20260297542A1, “HERBICIDE RESISTANT PLANTS” (SYNGENTA CROP PROTECTION AG, priority 2023, published 2026)
Positions count from the first letter of the chain named. Where two headings read alike, the source gives them in different places.

Tests used:
[1] = target: T1, His-TEV-AtPP01 ΔcTP (SEQ ID NO: 370) (Arabidopsis thaliana, UniProt P55826); experiment: PPO fluorescence IC50 assay, partially purified enzyme; assay type: biochemical
T1 construct: with cTPs removed; made in house; host or cells: E. coli BL21 (DE3), His GraviTrap, partially purified
T1 sequence (P55826 with tags, fused parts or gaps): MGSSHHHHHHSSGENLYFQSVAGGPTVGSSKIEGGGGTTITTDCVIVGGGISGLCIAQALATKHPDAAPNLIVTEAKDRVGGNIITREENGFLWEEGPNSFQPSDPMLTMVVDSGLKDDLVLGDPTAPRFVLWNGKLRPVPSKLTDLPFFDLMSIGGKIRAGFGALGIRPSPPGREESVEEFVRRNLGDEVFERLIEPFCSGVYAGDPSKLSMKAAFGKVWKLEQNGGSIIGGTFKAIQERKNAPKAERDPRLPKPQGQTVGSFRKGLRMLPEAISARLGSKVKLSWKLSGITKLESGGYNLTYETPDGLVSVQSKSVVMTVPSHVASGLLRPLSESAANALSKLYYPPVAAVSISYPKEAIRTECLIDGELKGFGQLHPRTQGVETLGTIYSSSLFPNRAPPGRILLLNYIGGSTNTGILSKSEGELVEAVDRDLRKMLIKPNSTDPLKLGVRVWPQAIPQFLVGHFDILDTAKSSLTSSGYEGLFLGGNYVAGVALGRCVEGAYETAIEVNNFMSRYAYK
Excerpt: (§1) A pET24 plasmid containing a DNA sequence encoding variants of AtPPO1 derived from Arabidopsis thaliana with cTPs removed and both a 6×His tag and TEV protease cleavage tag added at the N-terminus, codon-optimised for expression in E. coli, and under control of a T7 promoter, was synthesised by Twist Bioscience. The following variants were synthesised: WT AtPPO1 (SEQ ID NO: 370), AtPPO1 L479M (SEQ ID NO: 371), AtPPO1 L479N (SEQ ID NO: 372), AtPPO1 S305L Y426V (SEQ ID NO: 374) and AtPPO1 S305L Y426V L479M (SEQ ID NO: 373). This plasmid was expressed in E. coli BL21 (DE3) with 50 μg/mL kanamycin selection. 10 mL of overnight cultures grown at 37° C. were used to inoculate 1 L AIM (AIM-Terrific Broth Base including Trace elements, Formedium) in 2 L shake flasks. Cultures were grown at 37° C., 200 rpm for 3 hours and then overnight at 26° C. Cells were harvested centrifugation. 5-15 g of cell pellet was lysed in and resuspended in ratio of 1:1.5 in lysis buffer (20 mM Tris pH8, 500 mM sodium chloride, 10% glycerol, 1× complete Protease EDTA-free Inhibitor Tablet (Roche), 10 mM imidazole). The resuspension was sonicated at 75% using 10 cycles of 30 seconds, 40 seconds off. After sonication Triton X-100 was added to the lysates at a final concentration of 0.5%. The lysates were centrifuged at 20,000 rpm for 25 min at 4° C. Cleared lysates were loaded on His GraviTrap (Cytiva) columns, washed with 20 mL of lysis buffer and eluted in elution buffer (20 mM Tris pH8, 500 mM sodium chloride, 10% glycerol, 200 mM imidazole, 0.03% (v/v) Triton X-100). The eluate was desalted on a PD10 column and 2.5-3.2 mL was collected. Protein concentration was measured and calculated using the absorbance at 280 nm. Extracts were diluted 1 in 4 and 10 uL was analysed by SDS PAGE.
(§2) Partially purified Protoporphyrinogen Oxidase enzymes were assayed for activity using fluorescence adapted from the method of Shepherd & Dailey (Anal Biochem. 2005 344(1) 115-121). The assay was performed in black 384 well plates with a clear bottom and the total volume of the reaction mixture was 91 ul. The final assay mixture contained 100 mM K2HPO4 pH7.2, 1 mM Na2EDTA, 5 mM DTT, 20% glycerol (v/v), 0.05% Tween 20 (v/v), 1.1% DMSO (v/v), 1 uM protoporphyrinogen IX and 1.5 nM enzyme. Compounds were dissolved in DMSO at 1 mM and a 4-fold serial dilution carried out to give 8 rates. 1 ul was added to the assay mixture. This gave final compound concentrations of 11, 2.7, 0.69, 0.17, 0.04, 0.01, 0.002, 0.0007 uM. Enzyme and inhibitor were preincubated for 5 minutes prior to starting the reaction with the addition of the substrate. […] IC50s were calculated using GraphPad Prism 7.05 nonlinear regression (Table 6). Each compound was tested in duplicate.

[2] = target: T2, His-TEV-AtPP01 ΔcTP L479N (SEQ ID NO: 372) (Arabidopsis thaliana, UniProt P55826, L479N); experiment: as above; assay type: biochemical
T2 construct: with cTPs removed; made in house; host or cells: E. coli BL21 (DE3), His GraviTrap, partially purified
T2 sequence (P55826 with tags, fused parts or gaps L479N): T1 sequence (P55826 with tags, fused parts or gaps) with L464N
Excerpt: as §1, §2

[3] = role: inhibitor, 1 uM protoporphyrinogen IX, <1.0 is below detection limit of assay

SMILES | IC50 [1] [nM] | IC50 [2] [nM] | IC50 [1, 3] [nM] | IC50 [2, 3] [nM]
C=CCOC(=O)C(C)(C)OC(=O)c1cc(-n2c(=O)cc(C(F)(F)F)n(C)c2=O)ccc1Cl [Butafenacil, butafenacil] | 0.6 | 0.9 |  | 
CCOC(=O)COc1cc(-c2nn(C)c(OC(F)F)c2Cl)c(F)cc1Cl [Pyraflufen-ethyl, pyraflufen-ethyl] | 0.6 | 0.8 |  | 
CS(=O)(=O)NC(=O)c1cc(Oc2ccc(C(F)(F)F)cc2Cl)ccc1[N+](=O)[O-] [Fomesafen, fomesafen] | 1.8 | 1.4 |  | 
CCOC(=O)[C@]1(C)CC(c2cc(-n3c(=O)n(C)c(=S)n(C)c3=O)c(F)cc2Cl)=NO1 [Herbicide D, ethyl (5S)-3-[2-chloro-5-(3,5-dimethyl-2,6-dioxo-4-thioxo-1,3,5-triazinan-1-yl)-4-fluoro-phenyl]-5-methyl-4H-isoxazole-5-carboxylate] |  | 0.8 |  | 
CCOC(=O)C1(C)CC(c2cc(-n3c(=O)cc(C(F)(F)F)n(C)c3=O)c(F)cc2Cl)=NO1 (stereo not shown) [Herbicide C, 3-(2-chloro-4-fluoro-5-(3-methyl-2,6-dioxo-4-trifluoromethyl-3,6-dihydropyrimidin-1(2H)-yl)phenyl)-5-methyl-4,5-dihydroisoxazole-5-carboxylic acid ethyl ester] | 0.7 | 0.9 |  | 
C#CCN1C(=O)C(F)(F)Oc2cc(F)c(-n3c(=O)n(C)c(=S)n(C)c3=O)cc21 [Herbicide B, trifludimoxazin] | 0.7 | 1 |  | 
C#CCN1C(=O)COc2cc(F)c(N3C(=O)C4=C(CCCC4)C3=O)cc21 [Flumioxazin, flumioxazin] | 0.8 | 1 |  | 
CC(C)N(C)S(=O)(=O)NC(=O)c1cc(-n2c(=O)cc(C(F)(F)F)n(C)c2=O)c(F)cc1Cl [Herbicide E, saflufenacil] | 2.1 | 2.6 |  | 
C#CCOc1cc(-n2nc3n(c2=O)CCCC3)c(Cl)cc1Cl [Azafenadin] | 0.8 | 0.8 |  | 
C#CCN(C)c1c(C#N)cnn1-c1nn2c(c1Cl)CCCC2 [Pyraclonil] | 2.5 | 1.5 |  | 
CCOC(=O)COc1ncccc1Oc1cc(-n2c(=O)cc(C(F)(F)F)n(C)c2=O)c(F)cc1Cl [Herbicide A, epyrifenacil] | 0.7 | 0.9 |  | 
CC(C)Oc1cc(-n2nc(C(C)(C)C)oc2=O)c(Cl)cc1Cl [Oxadiazaon] | 19 | 6.1 |  | 
COC(=O)C(C)ON=Cc1cc(-n2c(=O)cc(C(F)(F)F)n(C)c2=O)c(F)cc1Cl (stereo not shown) [Flufenoximacil, flufenoximacil] |  |  | 0.6 | 0.8
